Reference: US20020064511A1, “Water-soluble polymers for the reduction of dietary phosphate or oxalate absorption” (priority 1996, published 2002)

Assay: Complexation of phosphate in NaH2PO4 solution, Centricon 30 filtrate phosphorus by ICP
Format: binding
Method: In each of four tubes, 0.54 mL of this solution (0.19 mmol of monomer units) were mixed with 10 mL of 0.0207 M NaH2PO4 and appropriate amounts of HCl and NaOH to make solutions of pH 3, pH 4.5, pH 6, and pH 7.5. Tubes with the same pH were also prepared with 10 mL of 0.0207 M NaH2PO4and 0.50 mL of 1.5 M CaCO, (0.749 mmol). Control tubes were also prepared with the sodium phosphate solution and the adjustment of pH. All tubes were diluted to 12 mL with water. The tubes were agitated for one hour. The solutions were then placed in separate Centricon™ 30 molecular weight cutoff tubes and centrifuged for 30 minutes. The filtrate collected was analyzed for phosphorus by inductively coupled plasma spectroscopy.
In each of four tubes, 0.67 mL of this solution (0.18 mmol of monomer units) were mixed with 10 mL of 0.0207 M NaH2PO4 and appropriate amounts of HCl and NaOH to make solutions of pH 3, pH 4.5, pH 6, and pH 7.5. Tubes with the same pH were also prepared with 10 mL of 0.0207 M NaH2PO4 and 0.50 mL of 1.5 M CaCO3 (0.749 mmol). Control tubes were also prepared with the sodium phosphate solution and the adjustment of pH. All tubes were diluted to 12 mL with water. The tubes were agitated for one hour. The solutions were then placed in separate Centricon™ 30 molecular weight cutoff tubes and centrifuged for 30 minutes. The filtrate collected was analyzed for phosphorus by inductively coupled plasma spectroscopy.

For `O=C([O-])[O-].[Ca+2]` [calcium carbonate], the phosphorus removed (pH 3, 10 mL 0.0207 M NaH2PO4, one hour) was 16%, the phosphorus removed (pH 4.5, 10 mL 0.0207 M NaH2PO4, one hour) was 13% and the phosphorus removed (pH 6, 10 mL 0.0207 M NaH2PO4, one hour) was 9%. For the same molecule, the phosphorus removed (pH 7.5, 10 mL 0.0207 M NaH2PO4, one hour) was 7%.
